Assay results taken from patent publication US20250313849A1, “OPTOGENETIC INDUCTION OF MEMBRANELESS ORGANELLES” (UNIVERSITY OF PITTSBURGH-OF THE COMMONWEALTH SYSTEM OF …, priority 2017, published 2025).
Entries after “also recorded” stand apart in the source; their conditions may differ.

B1: Cry2 PHR-[…]NTF-G3BP1: Cry2PHR with G3BP1 NTF2 Domain Deletion Mutation, SEQ ID NO: 94 (protein)
chain: MKMDKKTIVWFRRDLRIEDNPALAAAAHEGSVFPVFIWCPEEEGQFYPGRASRWWMKQSLAHLSQSLKALGSDLTLIKTHNTISAILDCIRVTGATKVVFNHLYDPVSLVRDHTVKEKLVERGISVQSYNGDLLYEPWEIYCEKGKPFTSFNSYWKKCLDMSIESVMLPPPWRLMPITAAAEAIWACSIEELGLENEAEKPSNALLTRAWSPGWSNADKLLNEFIEKQLIDYAKNSKKVVGNSTSLLSPYLHFGEISVRHVFQCARMKQIIWARDKNSEGEESADLFLRGIGLREYSRYICFNFPFTHEQSLLSHLRFFPWDADVDKFKAWRQGRTGYPLVDAGMRELWATGWMHNRIRVIVSSFAVKFLLLPWKWGMKYFWDTLLDADLECDILGWQYISGSIPDGHELDRLDNPALQGAKYDPEGEYIRQWLPELARLPTEWIHHPWDAPLTVLKASGVELGTNYAKPIVDIDTARELLAKAISRTREAQIMIGAAMGFVTEPQEESEEEVEEPEERQQTPEVVPDDSGTFYDQAVVSNDMEEHLEEPVAEPEPDPEPEPEQEPVSEIQEEKPEPVLEETAPEDAQKSSSPAPADIAQTVQEDLRTFSWASVTSKNLPPSGAVPVTGIPPHVVKVPASQPRPESKPESQIPPQRPQRDQRVREQRINIPPQRGPRPIREAGEQGDIEPRRMVRHPDSHQLFIGNLPHEVDKSELKDFFQSYGNVVELRINSGGKLPNFGFVVFDDSEPVQKVLSNRPIMFRGEVRLNVEEKKTRAAREGDRRDNRLRGPGGPRGGLGGGMRGPPRGGMVQKPGFGVGRGLAPRQKLIPMARRAWLEHGHSCFLCEIVIRSQFHTTYEPEA

Experiments:
Assay type in all cases: cell-based
[1] = test system: endogenous stress granule formation; assay: NaAsO2 induced endogenous stress granule formation in cells expressing G3BP1-NcVVDY50W, inhibitor pre-treatment; details: NaAsO2 0.5 mM, 30 min; GSK2606414 added 1 hour before, cycloheximide 1 and a half hours before
Description: (§1) FIGS. 22A-22B. […] When endogenous stress granule formation is induced with NaAsO2 (0.5 mM, 30 min treatment), the G3BP1-NcVVDY50W forms stress granules that stain positive for key markers TIAR and eIF4G. When GSK2606414, a PERK kinase inhibitor, is added 1 hour before NaAsO2 treatment, endogenous stress granule formation is attenuated (FIG. 22A). When GSK2606414 is added 1 hour before blue light stimulation, there is no change in stress granule formation (FIG. 22B).
(§2) FIGS. 23A-23B. […] When endogenous stress granule formation is induced with NaAsO2 (0.5 mM, 30 min treatment), the G3BP1-NcVVDY50W forms stress granules that stain positive for the key marker eIF4G. When cycloheximide, a translational inhibitor, is added 1 and a half hours before NaAsO2 treatment, endogenous stress granule formation is attenuated (FIG. 23A).

[2] = test system: optogenetically induced stress granule formation; assay: Blue light (optogenetically) induced stress granule formation, inhibitor pre-treatment; details: blue light stimulation; GSK2606414 added 1 hour before, cycloheximide 1 and a half hours before
Description: as §1, §2
These light induced stress granules colocalize with key stress granule components, including Ataxin-2, TIAR, G3BP, eIF4G, eIF3H, RPS3, RPS6, TDP-43, FUS mRNA, and PABPC1 (FIGS. 2-9, 12, 13, 18, 20, 22, 23, 24, 25). Furthermore, the colocalization with mRNA (FIGS. 12 and 13) indicates the light induced stress granules are likely inhibiting mRNA translation. Note that the light induced stress granules appear identical to naturally occurring stress granules induced by heat shock treatment for 30 minutes at 42° C. […]

stress granules = assay: Cellular occurrence and structural characteristics of stress granules; details: NaAsO2 0.5 mM, 30 min; cells expressing G3BP1-NcVVDY50W; Ataxin-2 positive
Description: FIGS. 11A-11D. […] Under normal conditions, G3BP1-NcVVDY50W remains diffuse in the cytoplasm. When endogenous stress granule formation is induced with NaAsO2 (0.5 mM, 30 min treatment), the G3BP1-NcVVDY50W forms stress granules that stain positive for the key marker Ataxin-2, and occur in the cell 11 times on average (FIG. 11A). They also have a defined shape that gives them a defined area (FIG. 11B), diameter (FIG. 11C) and circularity (FIG. 11D).

HEK293 cells [3] = assay: Blue light induced stress granules: staining for stress granule markers and mRNA; details: blue light stimulation
Description: FIGS. 2A-2B. Blue light induced stress granules using a NcVVDY50W-G3BP1 protein arrangement. […] A DNA arrangement that generates the NcVVDY50W-G3BP1 was developed and expressed in HEK293 cells. Under normal conditions, the NcVVDY50W-G3BP1 remains diffuse in the cytoplasm. When endogenous stress granule formation is induced with heat shock, the NcVVDY50W-G3BP1 forms stress granules that stain positive for key markers including Ataxin-2 and TIAR.
FIG. 5. […] Under normal conditions, G3BP1-NcVVDY50W remains diffuse in the cytoplasm. When endogenous stress granule formation is induced with NaAsO2 (0.5 mM, 30 min treatment), the G3BP1-NcVVDY50W forms stress granules that stain positive for key markers TDP-43 and eIF4G. […] As an example of this technology, DNA arrangements were developed that generated G3BP1-NcVVDY50W, and expressed in HEK293 cells. Under normal conditions, the G3BP1-NcVVDY50W remains diffuse in the cytoplasm. When endogenous stress granule formation is induced with sodium arsenite, the G3BP1-NcVVDY50W forms stress granules that probe positive for key markers, including TDP-43 and eIF4G. […] Inserts are 3D images of stress granules indicated by arrows.
While stress granule dynamics are shown to be altered in these diseases, the true contributions of stress granules to disease pathobiology is unknown since the only current method to form these organelles is to introduce an extracellular stressor (e.g. heat stress at 43° C., exposure to sodium arsenite) which is toxic to cells and ultimately kills the cells being studied. The longest studies of stress granules to date are only on the order of a few hours and so, the importance of these organelles in the initiation of neurodegeneration or cancer cannot be assessed. Therefore, a method to control stress granule formation was developed using light, without the need for any extracellular stressors. To achieve this, the DNA encoding specific photoreceptor protein domains that self-bind with blue light exposure were linked to the DNA of a key protein required for the formation of stress granules, G3BP1 or TIA1. These arrangements were then expressed in HEK293 cells and were tested for their ability to form functional stress granules with various blue light treatment paradigms. It was shown that the LOV photoreceptor domain, from the Vivid protein of N. crassa, which is known to dimerize with blue light exposure, when fused to G3BP1 and exposed to 15-1080 min of 465 nm light at 0.1-1.0 mW/cm2 initiates the formation of a core stress granule structure consisting of the photoreceptors fused to G3BP1 that recruits additional G3BP1 and accessory proteins that comprise stress granules and allow for their maturation. This likely involved the liquid-liquid phase separation (LLPS) and dimerization and oligomerization of G3BP1 (concept represented in FIG. 1).

HEK293 cells [4] = assay: Longitudinal live imaging of light induced stress granule dynamics; details: for dynamics / liquid-like behaviour of light induced stress granules: blue light on/off or chronic
Description: FIG. 15. […] NcVVDY50W-G3BP1 was expressed in HEK293 cells. […] NcVVDY50W-G3BP1 expressing HEK293 cells were longitudinally imaged every 30 seconds and exposed to blue light in between each image for 30 minutes. The light was then removed and cells were imaged every 30 seconds without light in between each image to study the rate of formation and dissociation of the light induced stress granules.
FIGS. 17A-17B. […] FIG. 17A) NcVVDY50W-G3BP1 was expressed in HEK293 cells. Stress granule formation can be temporally controlled with light stimulation at different voltages. FIGS. 17B) NcVVDY50W-G3BP1 expressing HEK293 cells were longitudinally imaged every 30 seconds and exposed to different voltages (1.0V, or 5.0V, or 10.0V) of blue light in between each image for 30 minutes, over a time-course of 6 hours. The light was then removed and cells were imaged every 30 seconds without light in between each image to study the rate of formation of the light induced stress granules.
FIGS. 18A-18E. […] NcVVDY50W-G3BP1 was expressed in HEK293 cells. […] Light paradigms were developed to chronically form stress granules with light for up to 18 hours. The light induced stress granules are positive for both key markers such as PABPC1 and sequester mRNA throughout the time course, indicating they are functional. […] No previous study has been able to induce stress granule formation for more than 2-3 hours as the cells die from the treatment to induce stress granules. Thus, these are the first studies to create chronic stress granules for over 2-3 hours.
(§3) FIGS. 24A-24E. Replacing the G3BP1 NTF2 domain, which is required for G3BP1 self-oligomerization (optoSG), with oligomerizing photoreceptors, is sufficient to initiate the formation of optogenetic stress granules. FIG. 24A) Schematics of an additional approach to seed optoStress Granules (optoSGs) employing truncated G3BP1 protein and replacing the NTF2 oligomerizing domain with a photoreceptor with the capacity to oligomerize (in this instance Cry2-PHR, but also works with chronic stimulation of dimerizing photoreceptor). FIG. 24B) HEK cells expressing Cry2 PHR-[…]NTF-G3BP1 were exposed to blue light LED stimulation for 30 minutes to induce the formation of optoSGs.
FIGS. 25A-25C. OptoStress Granules (optoSGs) (Cry2-delta NTF-G3BP1) display liquid-like properties of membraneless organelles and colocalize with translation initiation factors and mRNA.

protein synthesis = assay: De novo protein synthesis, HPG incorporation with Click-iT detection; details: blue light stimulation; Click-iT detection
Description: FIGS. 14A-14B. […] The major function of endogenous stress granules is to bind mRNAs and halt protein synthesis until the cellular stress is removed. To test this, cells expressing G3BP1-NcVVDY50W were either exposed to blue light stimulation or not for 30 minutes and protein translation was assessed. Prior to the translation assay, cells were treated with cyclohexamide for one hour to inhibit protein synthesis and then the cyclohexamide was removed and cells were provided L-Homopropargylglycine (HPG) for one hour. HPG acts as a methionine amino acid analog and is incorporated into newly synthesized proteins. Click-iT™ chemistry was then performed to detect HPG and cells were imaged. Green signal indicates newly synthesized proteins during the time at which HPG is present in the media.
as §3

Molecule	endogenous stress granule formation [1]	optogenetically induced stress granule formation [2]	colocalization of blue light induced stress granules with stress granule markers (HEK293 cells [3])	dynamics / liquid-like behaviour of light induced stress granules (HEK293 cells [4]; HEK293 cells)	also measured
Cn1cc(-c2ccc3c(c2)CCN3C(=O)Cc2cccc(C(F)(F)F)c2)c2c(N)ncnc21 [GSK2606414]	attenuated	no change			
C[C@@H]1C[C@@H]([C@H](O)CC2CC(=O)NC(=O)C2)C(=O)[C@@H](C)C1 [cycloheximide]	attenuated	inhibited; also recorded: fail to form			
O=[As]O [NaAsO2, sodium arsenite]					occurrence of stress granules in the cell, on average (stress granules): 11
NcVVDY50W-G3BP1: NcVivid Y50W with G3BP1 Full Length Protein, SEQ ID NO: 9			stained positive for Ataxin-2 and TIAR; also recorded: colocalize with the key stress granule marker eIF3H	repeatedly formed; also recorded: decrease in number and increase in size	mRNA sequestration by blue light induced stress granules (HEK293 cells [3]): sequester cytoplasmic mRNA; duration of chronically formed stress granules with light (HEK293 cells [4]; HEK293 cells, chronic light, no cell stressors): up to 18 hours
B1			colocalize with endogenous stress granule markers including PABPC1 and the 40S ribosomal component RPS3; also recorded: colocalize with mature stress granule markers Ataxin2 and eIF4G translational factors	exhibit the liquid-like droplet properties of endogenously formed stress granules	protein synthesis (HPG signal) with light-induced stress granules (protein synthesis): inhibit cellular protein synthesis to a similar degree as sodium arsenite induced stress granules; time to optoSG formation (HEK293 cells [4]; HEKs, blue light LED stimulation): 15 min
